Measurements taken from patent publication US5677466A, “Labelled fibrinogen receptor antagonists, the use thereof and processes for preparing them” (Dr. Karl Thomae, GmbH, priority 1992, dated 1997).

System: fibrinogen receptor
Test: fibrinogen receptor binding test with ^3 H-BIBU 52 on human thrombocytes in plasma
Settings: in the presence of plasma, non-labelled BIBU 52 as competitor
Protocol: The fibrinogen receptor binding test according to the invention was carried out, for example, using (3S,5S)-5-[(4'-amidino-4-biphenylyl)-oxymethyl]-3-carboxymethyl-pyrrolidin-2-one-[3-^3 H-4-biphenylyl][=^3 H-BIBU 52 ZW] as ligand in the following manner:
A suspension of human thrombocytes in plasma is incubated with ^3 H-BIBU 52 and varying concentrations of the substance to be tested. The free and bound ligand is separated off by centrifuging and quantitatively determined by scintillation counting. The inhibition of the ^3 H-BIBU 52 binding by the test substance is determined from the measurements obtained.
In order, for example, to measure the competition of binding of ^3 H-BIBU 52 by non-labelled BIBU 52, blood is taken from an anticubital vein and anticoagulated with trisodium citrate (final concentration 13 mM). The blood is centrifuged for 10 minutes at 170 ×g and the supernatant platelet-rich plasma (PRP) is removed. The remaining blood is sharply centrifuged once more in order to obtain plasma. The PRP is diluted with autologous plasma 1:10. […] 100 μl thereof are measured in order to determine the free ligand. The pellet is dissolved in 500 μl of 0.2N NaOH, 450 μl are mixed with 25 μl of 5N HCl and measured. The residual plasma remaining in the pellet is determined from the ^14 C-content and the bound ligand is determined from the ^3 H-measurement. […]

N=C(N)c1ccc(-c2ccc(OC[C@@H]3C[C@@H](CC(=O)O)C(=O)N3)cc2)cc1 [BIBU 52, (3S,5S)-5-[(4'-amidino-4-biphenylyl)-oxymethyl]-3-carboxymethyl-pyrrolidin-2-one]
binding of tritiated BIBU 52 to human thrombocytes (FIG. 1): supression of binding
